Assay results: PMC6792352, “Limited Chemical Structural Diversity Found to Modulate Thyroid Hormone Receptor in the Tox21 Chemical Library” (Environmental Health Perspectives, 2019)
Where a name gives a salt, the structure may show the parent alone.

Assay: in vitro
Conditions: rat, gh3-tre-luc cells

Row | Compound | CC50 at 24 h (AC50 (uM) modified / 1000) | other results
1 | COCC(C)N(C(=O)CCl)c1c(C)csc1C (stereo not shown) [Dimethenamid] | > 90 µM | –
2 | CC(C)c1nnc2ccc(-c3ocnc3-c3cc(F)ccc3F)cn12 [CP-863187] | > 90 µM | –
3 | Sc1ncnc2nc[nH]c12 [6-Mercaptopurine monohydrate] | > 90 µM | –
4 | OCCSCSCCO [2,2'-(Methanediyldisulfanediyl)diethanol] | – | CC50 at 24 h (AC50 (uM) modified / 1000, Tox21_110001=Tox21_301758, viability, 1 nM T3 present, 24 h): > 90 µM
5 | CCOC(=O)[C@@](C)(N)Cc1ccc(O)c(O)c1 [Methyldopate hydrochloride] | > 20 µM | –
6 | O=C(O)CCC/C=C\C[C@@H]1[C@@H](/C=C/[C@@H](O)COc2cccc(C(F)(F)F)c2)[C@H](O)C[C@@H]1O (racemic) [Fluprostenol] | > 50 µM | –
7 | CC(CO)(CO)CO [2-(Hydroxymethyl)-2-methyl-1,3-propanediol] | > 90 µM | –
8 | Cc1ccncc1 [4-Methylpyridine] | > 100 µM | –
9 | C[C@H]1O[C@H](O[C@H]2[C@H](O)[C@@H](O)[C@@H](O)[C@H](O)[C@@H]2O)[C@@H](N)C[C@@H]1NC(=N)C(=O)O [Kasugamycin hydrochloride] | > 90 µM | –
10 | CC1=C(/C=C/C(C)=C/C=C/C(C)=C/C=C/C=C(C)/C=C/C=C(C)/C=C/C2=C(C)C[C@@H](O)CC2(C)C)C(C)(C)C[C@H](O)C1 [Zeaxanthin] | 28.9 µM | –
11 | CCOc1nc(F)cc2nc(S(=O)(=O)Nc3c(Cl)cccc3Cl)nn12 [Diclosulam] | > 90 µM | –
12 | CNS(=O)(=O)Cc1ccc2[nH]cc(CCN(C)C)c2c1 [Sumatriptan] | > 50 µM | –
13 | O=C1CSC2(CCN(CCCN3c4ccccc4Sc4ccc(Cl)cc43)CC2)N1 [Spiclomazine hydrochloride] | 6.81 µM | –
14 | CO/N=C(\C(=O)N[C@@H]1C(=O)N2C(C(=O)OCOC(=O)C(C)(C)C)=C(C)CS[C@H]12)c1csc(N)n1 [Cefetamet pivoxil HCl] | > 50 µM | –
15 | O=C1CCC(=O)O1 [Succinic anhydride] | > 90 µM | –
16 | CC(O)CN(C)C (stereo not shown) [Dimepranol] | > 50 µM | –
17 | CCCCC(CC)COC(=O)CC#N (stereo not shown) [2-Ethylhexyl cyanoacetate] | > 90 µM | –
18 | NCCCN1CCN(CCCN)CC1 [1,4-bis(3-Aminopropyl)piperazine] | > 90 µM | –
19 | O=C(O)c1cc2ccccc2c(Cc2c(O)c(C(=O)O)cc3ccccc23)c1O [Pamoic acid] | > 50 µM | –
20 | CCCCCOc1ccc(C2SC(=O)NC2=O)cc1OCC (stereo not shown) [Risarestat] | > 50 µM | –
21 | Cc1ncc(C[n+]2csc(CCO[P@](=O)(O)OP(=O)(O)O)c2C)c(N)n1 [Cocarboxylase chloride] | > 50 µM | –
22 | CC(=O)CC(=O)OC(C)(C)C [tert-Butyl 3-oxobutanoate] | > 90 µM | –
23 | CNC[C@H](O)c1cccc(O)c1 [Phenylephrine hydrochloride] | > 90 µM | –
24 | CC(C)CCCCCOC(=O)CCS [Isooctyl 3-mercaptopropionate] | > 90 µM | –

Row | Compound | CC50 at 24 h (AC50 (uM) modified / 1000) | other results
25 | CC(=O)/C=C/c1ccc2c(c1)OCO2 [Piperonal acetone] | – | CC50 at 24 h (AC50 (uM) modified / 1000, Tox21_110001=Tox21_202464, viability, 1 nM T3 present, 24 h): 57.5 µM
26 | Cc1cccc(O)c1 [m-Cresol] | > 100 µM | –
27 | O=[N+]([O-])CCO [2-Nitroethanol] | > 100 µM | –
28 | Cc1cn([C@H]2C[C@H](N=[N+]=[N-])[C@@H](CO)O2)c(=O)[nH]c1=O [3'-Azido-3'-deoxythymidine] | > 90 µM | –
29 | CCC(C(=O)OCCN(CC)CC)c1ccccc1 (stereo not shown) [Butetamate] | > 50 µM | –
30 | Fc1ccc([C@@H]2CCNC[C@H]2COc2ccc3c(c2)OCO3)cc1 [Paroxetine] | 10.7 µM | –
31 | COc1ccc([C@@H]2CC(=O)c3c(O)cc(O[C@@H]4O[C@H](CO[C@@H]5O[C@@H](C)[C@H](O)[C@@H](O)[C@H]5O)[C@@H](O)[C@H](O)[C@H]4O)cc3O2)cc1OC [Methyl hesperidin] | > 90 µM | –
32 | Cc1cc(C)c(C2=C(OC(=O)CC(C)(C)C)C3(CCCC3)OC2=O)c(C)c1 [Spiromesifen] | > 100 µM | –
33 | CC1=C(C/C=C(\C)CCC[C@H](C)CCC[C@H](C)CCCC(C)C)C(=O)c2ccccc2C1=O [Phytonadione] | > 50 µM | –
34 | N#Cc1ccccc1O [2-Hydroxybenzonitrile] | > 90 µM | –
35 | O=C1c2ccccc2C(=O)C1c1nc2ccccc2c(Br)c1O [C.I. Disperse Yellow 64] | > 90 µM | –
36 | CC(O)CCl (stereo not shown) [1-Chloro-2-propanol, technical grade (~75% 1-chloro-2-propanol; ~25% 2-chloro-1-propanol)] | – | CC50 at 24 h (AC50 (uM) modified / 1000, Tox21_110001=Tox21_200998, viability, 1 nM T3 present, 24 h): > 90 µM
37 | CCO[Si](CCCS)(OCC)OCC [3-(Triethoxysilyl)propane-1-thiol] | > 90 µM | –
38 | C=CC(C)(CCC=C(C)C)OC=O (stereo not shown) [Linalyl formate] | > 90 µM | –
39 | CCC(=O)c1ccc(Cl)cc1 [Ethyl 4-chlorophenyl ketone] | – | CC50 at 24 h (AC50 (uM) modified / 1000, Tox21_110001=Tox21_303381, viability, 1 nM T3 present, 24 h): > 90 µM
40 | O=C1C=C2C=C[C@@H]3C[C@@]2(O1)[C@H]1CCCCN31 [Securinine] | 15.3 µM | –
41 | CCCCCNCCCCC [Dipentylamine] | > 90 µM | –
42 | CC1(C)C(=O)N(Br)C(=O)N1Br [1,3-Dibromo-5,5-dimethylhydantoin] | > 90 µM | –
43 | CCCc1nc(C(C)(C)O)c(C(=O)OCc2oc(=O)oc2C)n1Cc1ccc(-c2ccccc2-c2nnn[nH]2)cc1 [Olmesartan medoxomil] | > 50 µM | –
44 | C=CC(=O)OCCN(C)C [2-(Dimethylamino)ethyl acrylate] | > 90 µM | –
45 | CC1CCC(C(C)C)C(OC(=O)c2ccccc2N)C1 (stereo not shown) [Menthyl anthranilate] | – | CC50 at 24 h (AC50 (uM) modified / 1000, Tox21_110001=Tox21_111602, viability, 1 nM T3 present, 24 h): 42.1 µM; CC50 at 24 h (AC50 (uM) modified / 1000, Tox21_110001=Tox21_200561, viability, 1 nM T3 present, 24 h): 27.5 µM
46 | CC[N+](=O)[O-] [Nitroethane] | – | CC50 at 24 h (AC50 (uM) modified / 1000, Tox21_110001=Tox21_202217, viability, 1 nM T3 present, 24 h): > 90 µM
47 | CC(=O)O[C@H]1CC[C@H]2[C@@H]3CCC4=CC(=O)CCC4=C3C=C[C@]12C [Trenbolone acetate] | > 50 µM | –
48 | CC(=O)NCc1c(I)c(NC(C)=O)c(I)c(C(=O)O)c1I [Iodamide] | > 50 µM | –

Row | Compound | CC50 at 24 h (AC50 (uM) modified / 1000) | other results
49 | CC1=C(C(=O)O)N2C(=O)[C@@H](NC(=O)[C@H](N)C3=CCC=CC3)[C@H]2SC1 [Cephradine] | > 50 µM | –
50 | CC(Oc1ccc(Oc2ncc(C(F)(F)F)cc2Cl)cc1)C(=O)O (stereo not shown) [Haloxyfop] | > 90 µM | –
51 | C[C@]12C=CC(=O)N[C@@H]1CC[C@@H]1[C@@H]2CC[C@]2(C)[C@@H](C(=O)Nc3cc(C(F)(F)F)ccc3C(F)(F)F)CC[C@@H]12 [Dutasteride] | > 50 µM | –
52 | Cc1c(N)cccc1N [2,6-Toluenediamine] | > 90 µM | –
53 | O=C(O)c1cc(N=Nc2ccc([N+](=O)[O-])cc2)ccc1O [Alizarin Yellow R] | 58 µM | –
54 | CC(CC=O)c1ccccc1 (stereo not shown) [3-Phenylbutyraldehyde] | > 90 µM | –
55 | CC(C)N1C(=O)c2ccccc2C1=O [N-Isopropylphthalimide] | > 90 µM | –
56 | C#CCC1=C(C)C(OC(=O)C2C(C=C(C)C)C2(C)C)CC1=O (stereo not shown) [Prallethrin] | 66.6 µM | –
57 | C=COCC1CCC(COC=C)CC1 (stereo not shown) [1,4-Bis[(ethenyloxy)methyl]cyclohexane] | > 90 µM | –
58 | Cn1cc[n+](CCO)c1 [1-(2-Hydroxyethyl)-3-methylimidazolium chloride] | > 90 µM | –
59 | C[C@]12CC[C@@H]3c4ccc(O)cc4CC[C@H]3[C@@H]1CC[C@@H]2O [17beta-Estradiol] | > 90 µM | –
60 | CC(C)CCCCCCOC(=O)C1CCCCC1C(=O)OCCCCCCC(C)C (stereo not shown) [Diisononyl cyclohexane-1,2-dicarboxylate] | > 90 µM | –
61 | C[Si](C)(C)Cl [Chlorotrimethylsilane] | > 90 µM | –
62 | O=C1C2CC3CC1CC(O)(C3)C2 [Idramantone] | > 50 µM | –
63 | CC(C)(C(=O)c1cccnc1)c1cccnc1 [Metyrapone] | > 20 µM | –
64 | c1cc(-c2ccncc2)ccn1 [4,4'-Bipyridine] | > 90 µM | –
65 | CN(C)C1CCCCC1 [N,N-Dimethylcyclohexylamine] | > 90 µM | –
66 | CCCCCC[C@@H](O)C/C=C\CCCCCCCC(=O)OC [Methyl ricinoleate] | > 90 µM | –
67 | OCc1ccc(Cl)cc1Cl [2,4-Dichlorobenzyl alcohol] | > 90 µM | –
68 | CC(=O)CCc1ccccc1 [Benzylacetone] | > 90 µM | –
69 | CCN(CC)CCNc1ccc(CO)c2sc3ccccc3c(=O)c12 [Hycanthone] | 2.88 µM | –
70 | CCCCOC(=O)C(C)OC(=O)CCC (stereo not shown) [1-Butoxy-1-oxopropan-2-yl butanoate] | > 90 µM | –
71 | COC(=O)c1cc(C(=O)OC)cc(S(=O)(=O)O)c1 [Sodium 3,5-bis(methoxycarbonyl)benzenesulfonate] | > 90 µM | –
72 | CCCCCCCCCCCCSC [1-(Methylsulfanyl)dodecane] | > 90 µM | –
